Assay: Pharmacokinetic study in rats after oral administration of the CP extract (UPLC–TQ-MS/MS of plasma)
Format: in vivo
Conditions: male, Sprague-Dawley, rat plasma, single oral gavage of CP extract 10.5 g/kg, n=6, mean ± SD; for Cmax: non-compartmental
Experimental: Plasma samples were thawed at room temperature before analysis. Then, 10 μl of IS solution (20 μg/ml) and 200 μl of methanol were added to the plasma sample (90 μl) in a 1.5 ml Eppendorf tube. The mixture was vortexed for 1 min and centrifuged at 12,000×g for 10 min at 4 °C to deproteinize. Thereafter, 2 μl of the supernatant was injected into the UPLC–TQ/MS system for analysis.
Six healthy male Sprague–Dawley rats were fasted for 12 h with free access to water prior to the experiment. The CP extract was administered to rats by oral gavage at a dose of 10.5 g/kg body weight. Blood samples of approximately 0.5 ml were collected at 15 and 30 min and at 1 h, 2 h, 3 h, 4 h, 6 h, 8 h, 10 h, 12 h, and 24 h in heparinized centrifuge tubes from the ophthalmic vein using a sterile capillary tube under anesthesia after oral administration of the CP extract. Following centrifugation at 4000×g for 10 min at 4 °C, plasma samples were transferred to polypropylene tubes and stored at − 80 °C until analysis.
The concentrations of six analytes in plasma at different time points were expressed as mean ± SD, which was calculated from the daily calibration curve. All the pharmacokinetic parameters were processed through non-compartmental analysis using the DAS 3.0 pharmacokinetic program. The maximum plasma concentration (Cmax) and time to reach the maximum concentrations (Tmax) were obtained directly from the curve.

Row | Structure (SMILES) | AUC(0-inf) [µg·h/mL] | AUC(0-t) [µg·h/mL] | Tmax [h] | half-life [h] | Cmax [µg/mL]
1 | O=C(/C=C/c1ccc(O)c(O)c1)O[C@@H]1C[C@](O)(C(=O)O)C[C@@H](O)[C@H]1O [Chlorogenic acid, chlorogenic acid] | 3.58 ± 1.2 | 3.31 ± 1.06 | 0.39 ± 0.13 | 2.54 ± 0.53 | 4.17 ± 1.89
2 | O=c1c(O)c(-c2ccc(O)cc2)oc2cc(O)cc(O)c12 [Kaempferol, kaempferol] | 0.325 ± 0.104 | 0.242 ± 0.077 | 0.67 ± 0.26 | 7.24 ± 1.63 | 0.122 ± 0.0499
3 | O=C(/C=C/c1ccc(O)c(O)c1)O[C@@H]1C[C@@](O)(C(=O)O)C[C@@H](O)[C@@H]1O [Neochlorogenic acid, neochlorogenic acid] | 2.47 ± 0.943 | 2.45 ± 0.952 | 0.32 ± 0.12 | 4.54 ± 1.38 | 4.33 ± 1.61

The remaining lines, values ahead:

Row | AUC(0-inf) [µg·h/mL] | AUC(0-t) [µg·h/mL] | Tmax [h] | half-life [h] | Cmax [µg/mL] | Structure (SMILES)
4 | 0.0917 ± 0.0152 | 0.0798 ± 0.0285 | 0.46 ± 0.1 | 11.7 ± 6.01 | 0.0286 ± 0.00823 | O=c1c(O)c(-c2ccc(O)c(O)c2)oc2cc(O)cc(O)c12 [Quercetin, quercetin]
5 | 13.5 | 11 | 0.33 ± 0.13 | 10 ± 3.31 | 3.71 ± 1.59 | O=C(O)[C@H]1O[C@@H](Oc2c(-c3ccc(O)c(O)c3)oc3cc(O)cc(O)c3c2=O)[C@H](O)[C@@H](O)[C@@H]1O [Quercetin-3-O-glucuronide, quercetin-3-O-glucuronide]

— publication PMC6685155, “Simultaneous UPLC–TQ-MS/MS determination of six active components in rat plasma: application in the pharmacokinetic study of Cyclocarya paliurus leaves” (Chinese Medicine, 2019)
